Data taken from patent US11571413B2, “Nicotinamide riboside treatments of domesticated meat animals” (Kansas State University Research Foundation, priority 2017, dated 2023).

Assays:
growing pigs [1] = experiment: Oral NR for 7 days in growing pigs: average daily gain and loin eye area (Example III); assay type: in vivo, pig
Procedure: (§1) Nine growing pigs were blocked by bodyweight (BW) and placed in metabolism crates. After a 3-day acclimation period, pigs within each BW block were randomly assigned to a treatment (n=3 pigs/treatment). Treatments comprised pigs supplemented 0, 15, or 30 mg/kg BW NR for 7 days. Pigs were allowed ad libitum access to a standard growing diet and water. Treatments were administered daily at 8 a.m. by mixing NR in 20 mL of Karo® dark syrup and orally drenching the pigs. On day 0 and 3 of the trial, muscle biopsies of the LL were taken for NAD+ analysis using standard procedures. At day 7, pigs were transported to the Kansas State University Meats Laboratory and euthanized by a captive penetrating bolt to the brain, followed by exsanguination. Following harvest procedures, 3 g of the LL were collected for NAD+ analysis. Twenty-four hours after harvest, the whole LL not sampled at harvest was removed from the carcass and aged 10 days. After aging, the LL was cut into 6 chops for retail color stability analysis, including 6-day surface oxy- and metmyoglobin percentage, 6-day objective and subjective color panel evaluation, and day 4 and 6 metmyoglobin reducing ability (MRA).

growing pigs [2] = experiment: Longissimus lumborum chop retail color stability, 6-day display (Example III); assay type: in vivo, pig; settings: for Greater discoloration score of 0 mg/kg chops than NR chops: day 6 of display
Procedure: as §1

[3] = tested on: Fertilized Cobb 500 broiler eggs; experiment: Pectoralis major muscle fiber morphometrics and satellite cell content (second Example VI); assay type: in vivo, chicken
Procedure: The methods of Gonzalez and Jackson (2020) were followed for immunohistochemistry analysis. On 2 separate slides, 6 cryosections (10 μm thick) were collected on positively charged slides (Diamond White Glass; Globe Scientific Inc., Paramus, N.J.). Cryosections were incubated in 5% horse serum and 0.2% TritonX-100 in phosphate buffered saline (PBS) for 30 min to block all nonspecific binding sites. Cryosections were incubated for 16 h at 4° C. with a primary antibody solution comprising blocking solution and 1:500 rabbit α-dystrophin (Thermo Scientific, Waltham, Mass.) and 1:2 […] α-Pax7 antibody (Developmental Studies Hybridoma Bank, Iowa City, Iowa). Cryosections were washed 3 times for 5 min with PBS and incubated for 30 min with 1:1,000 Alexa-Flour 594 goat-anti-rabbit H&L (Life Technologies, Carlsbad, Calif.), 1:1000 Alexa-Flour 488 chicken-anti-mouse IgG1 (Life Technologies), and 1:1,000 Hoescht Dye 33342 (Life technologies) secondary antibodies in blocking solution. After washing in PBS 3 times for 5 min, 5 μL of 9:1 glycerol in PBS was placed on each cryosection and slides were coverslipped for imaging. All cryosections were imaged at 200× magnification using a Nikon Eclipse TI-U inverted microscope (Nikon Instruments Inc., Melville, N.Y.). Immunohistochemistry photomicrographs were collected with a DS-QiMC digital camera (Nikon Instruments Inc.) and SDH cryosections were collected with a Nikon DS-Fil color digital camera (Nikon Instruments Inc.) White light intensity was kept constant for SDH photomicrographs. All photomicrograph collection and image analyses were conducted using NIS Elements Basic Software (Nikon Instruments Inc.). Cross-sectional area (CSA) of a minimum of 1,000 muscle fibers per chick was determined as the area within the dystrophin border. The number of satellite cell was determined as nuclei co-staining for Pax 7 and Hoechst dye located at the periphery of muscle fiber. A minimum of 50 muscle fiber bundles per chick were analyzed for SDH mean intensity using the same software. The scale for mean intensity ranged from 0 (black or the most intense staining) to 250 (white or the least intense staining).

[4] = tested on: Fertilized Cobb 500 broiler eggs; experiment: Cyclin D mRNA expression by real-time PCR (second Example VI); assay type: in vivo, chicken; settings: 250, 500 mM or 1 M NR; hatched chicks
Procedure: The methods of Burnett et al. (2016) were followed with minor modifications. Briefly, nucleic acids were extracted and purified from 200 mg of the left biceps femoris muscle using Trizol (Life Technologies), followed by subjecting the nucleic acids to PureLink™ RNA
Mini Kit (Life Technologies, Carlsbad, Calif.). Total RNA concentration and 260 nm/280 nm ratio were quantified and extractions yielding RNA with a ratio greater than 1.9 were used for real-time PCR analysis. Trace genomic DNA contamination and reverse transcription were conducted on 50 ng of total RNA using a High-Capacity cDNA Reverse Transcription Kit (Life Technologies). Gene specific primers were designed, efficiencies determined, and validated for qPCR (Table 7). Complementary DNA was amplified in duplicate for each sample using PerfeCTa SYBR Green FastMix (Quanta Biosciences, Gaithersburg, Md.) and the appropriate gene specific forward and reverse primers (20 pM) in an Eppendorff Mastercycler realplex2 S PCR System (Eppendorf North America, Hauppauge, N.Y.). Thermal cycling parameters were initial heating at 50° C. for 2 min, denaturing at 95° C. for 10 min, 50 cycles of 15 s at 95.0° C., annealing at 60.5° C. for 30 s, and extension for 20 s at 68.0° C. A final dissociation step was included at 95° C. for 15 s, 60° C. for 30 s, and 95° C. for 15 s. Expression was normalized to 18S ribosomal RNA expression (ΔCt, where Ct refers to the threshold cycle), and calibrated to control chick (0 mM) mRNA expression (ΔΔCt). Gene fold change expression levels were calculated as 2^−ΔΔCt as previously described by Livak and Schmittgen (2001).

[5] = 250, 500 mM or 1 M NR, hatched chicks
[6] = 250 and 500 mM NR, hatched chicks

Which “Loin eye area (LEA) vs 0 mg/kg” value (growing pigs [1]; 15 mg/kg BW oral daily) does the source give for `NC(=O)c1ccc[n+]([C@@H]2O[C@H](CO)[C@@H](O)[C@H]2O)c1` [Nicotinamide riboside, nicotinamide riboside] here?
Its value is “did not differ”.

What about the “Better ADG compared to pigs in the other two treatments (numerical trend)” value (growing pigs [1]; 30 mg/kg BW oral daily) of the same compound?
Its value is 4.4%.

And the “Larger loin eyes than pigs fed 0 mg/kg NR” value (growing pigs [1]; 30 mg/kg BW oral daily)?
Its value is 52%.

And the “Larger loin eyes than pigs fed 15 mg/kg NR” value (growing pigs [1]; 30 mg/kg BW oral daily)?
Its value is 48%.

And the “Visual panel discoloration scores between treatments” value (growing pigs [2]; 0, 15 and 30 mg/kg, days 1, 4 and 5 of display)?
Its value is “did not differ”.

And the “Less surface metmyoglobin accumulation than 0 mg/kg chops (tendency)” value (growing pigs [2]; 15 mg/kg BW, 7 days, LL chops, entire 6-day display)?
Its value is 9%.

What about the “Greater discoloration score of 0 mg/kg chops than NR chops” value (growing pigs [2]; 15 mg/kg) of the same compound?
The value was 41%.

And the “Less discoloration than 0 mg/kg chops (tendency)” value (growing pigs [2]; 15 mg/kg, entire 6-day study)?
Its value is 27%.

What about the “More MRA than 0 mg/kg chops (tendency)” value (growing pigs [2]; 15 mg/kg, over the entire study) of the same compound?
Its value is 42%.

And the “Less surface metmyoglobin than 0 mg/kg chops” value (growing pigs [2]; 30 mg/kg BW, 7 days, LL chops, entire 6-day display)?
The value was 14%.

And the “Greater discoloration score of 0 mg/kg chops than NR chops” value (growing pigs [2]; 30 mg/kg)?
Its value is 39%.

And the “Less surface discoloration than 0 mg/kg chops” value (growing pigs [2]; 30 mg/kg, entire 6-day study)?
The value was 30%.

What about the “More metmyoglobin reducing ability (MRA) than 0 mg/kg chops” value (growing pigs [2]; 30 mg/kg, over the entire study) of the same compound?
The value was 64%.

What about the “Surface discoloration of 0 mg/kg chops vs 15 and 30 mg/kg chops” value (growing pigs [2]; days 2 and 3 of display) of the same compound?
Its value is “tended to have more surface discoloration”.

And the “Increase of satellite cell density compared to control” value ([3]; 250 mM NR, at hatching)?
Its value is 73%.

And the “Satellite cell density vs control chicks” value ([3]; 250 mM NR, hatched chicks)?
The value was “greater”.

What about the “Average increase of satellite cell density compared to control” value ([3]; 500 mM and 1 M NR, at hatching) of the same compound?
Its value is 116%.

What about the “Satellite cell density vs 0 and 250 mM treatments” value ([3]; 500 mM or 1 M NR, hatched chicks) of the same compound?
The value was “greater satellite cell density”.

What about the “Increase of muscle fiber density compared to control chicks” value ([3]; 1 M NR, hatched chicks) of the same compound?
The value was 75%.

What about the “Muscle fiber density vs all other treatments” value ([3]; 1 M NR, hatched chicks) of the same compound?
The value was “greater muscle fiber density”.

What about the “Muscle fiber CSA” value [3, 5] of the same compound?
The value was “no treatment effect”.

What about the “Number of satellite cells per muscle fiber” value [3, 5] of the same compound?
Its value is “no treatment effect”.

And the “Increase of muscle fiber density compared to control chicks (average)” value [3, 6]?
The value was 34%.

And the “Muscle fiber density vs control chicks” value [3, 6]?
Its value is “greater muscle fiber density”.

And the “Cyclin D1 and 2 mRNA expression” value [4]?
Its value is “no treatment effects”.

What about the “Cyclin D3 mRNA expression, control vs all NR treatments” value [4] of the same compound?
The value was “Control chicks had greater cyclin D3 expression”.

What about the “Greater cyclin D3 mRNA expression of control chicks than NR chicks (average)” value [4] of the same compound?
The value was 38%.
